Measured values published in ChEMBL document CHEMBL1132725, “Evaluation of new L-thiocitrulline derivatives as inhibitors of nitric oxide synthase” (Bioorg Med Chem Lett, 2000).
pKi: −log10 of the molar value.

Legend:
[1] = target: T1, Nitric oxide synthase, inducible (Mus musculus) (UniProt P29477); experiment: Compound was tested for the percent inhibition of nitric oxide synthase (i) using [14C]L-citrulline as radioligand.; conditions: concentration not given here
T1 sequence (whole entry): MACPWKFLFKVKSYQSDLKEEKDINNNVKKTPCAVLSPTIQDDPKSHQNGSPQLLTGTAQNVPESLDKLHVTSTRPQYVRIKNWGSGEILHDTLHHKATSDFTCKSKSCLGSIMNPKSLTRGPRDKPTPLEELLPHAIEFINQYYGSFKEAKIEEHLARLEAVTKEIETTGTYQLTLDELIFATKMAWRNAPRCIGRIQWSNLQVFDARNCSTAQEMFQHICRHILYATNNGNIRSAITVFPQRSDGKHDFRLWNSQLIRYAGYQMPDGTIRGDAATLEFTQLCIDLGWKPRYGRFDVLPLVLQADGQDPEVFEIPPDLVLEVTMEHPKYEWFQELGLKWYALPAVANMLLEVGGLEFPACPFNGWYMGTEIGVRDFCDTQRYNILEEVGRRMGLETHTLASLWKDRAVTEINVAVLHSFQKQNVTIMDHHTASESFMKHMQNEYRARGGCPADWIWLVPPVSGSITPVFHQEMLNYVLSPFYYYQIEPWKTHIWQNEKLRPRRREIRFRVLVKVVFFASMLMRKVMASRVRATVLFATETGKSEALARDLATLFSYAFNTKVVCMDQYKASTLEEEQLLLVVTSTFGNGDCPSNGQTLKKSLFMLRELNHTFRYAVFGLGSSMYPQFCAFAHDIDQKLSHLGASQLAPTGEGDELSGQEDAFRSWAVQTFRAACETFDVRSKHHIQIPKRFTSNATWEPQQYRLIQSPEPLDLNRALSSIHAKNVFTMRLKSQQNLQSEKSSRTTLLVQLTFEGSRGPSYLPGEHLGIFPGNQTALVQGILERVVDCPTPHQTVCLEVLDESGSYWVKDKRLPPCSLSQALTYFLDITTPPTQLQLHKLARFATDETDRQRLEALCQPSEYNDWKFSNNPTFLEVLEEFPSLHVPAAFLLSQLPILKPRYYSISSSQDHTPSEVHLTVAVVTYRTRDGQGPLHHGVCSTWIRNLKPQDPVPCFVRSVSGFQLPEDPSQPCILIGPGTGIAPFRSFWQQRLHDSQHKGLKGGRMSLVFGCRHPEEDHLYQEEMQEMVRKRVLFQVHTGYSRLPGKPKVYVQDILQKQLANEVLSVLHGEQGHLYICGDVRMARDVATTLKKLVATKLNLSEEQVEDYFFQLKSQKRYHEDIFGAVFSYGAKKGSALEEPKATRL

[2] = target: T2, Nitric oxide synthase, inducible (Mus musculus, UniProt P29477); experiment: Compound was tested for the competitive inhibition of nitric oxide synthase (i) using [14C]L-citrulline as radioligand. value ranges from 3.6-9 uM
T2 sequence (P29477 whole entry): T1 sequence (whole entry)

[3] = target: T3, Nitric oxide synthase 3 (Bos taurus) (UniProt P29473); experiment: Compound was tested for the percent inhibition of nitric oxide synthase (e) using [14C]L-citrulline as radioligand.; conditions: concentration not given here
T3 sequence (whole entry): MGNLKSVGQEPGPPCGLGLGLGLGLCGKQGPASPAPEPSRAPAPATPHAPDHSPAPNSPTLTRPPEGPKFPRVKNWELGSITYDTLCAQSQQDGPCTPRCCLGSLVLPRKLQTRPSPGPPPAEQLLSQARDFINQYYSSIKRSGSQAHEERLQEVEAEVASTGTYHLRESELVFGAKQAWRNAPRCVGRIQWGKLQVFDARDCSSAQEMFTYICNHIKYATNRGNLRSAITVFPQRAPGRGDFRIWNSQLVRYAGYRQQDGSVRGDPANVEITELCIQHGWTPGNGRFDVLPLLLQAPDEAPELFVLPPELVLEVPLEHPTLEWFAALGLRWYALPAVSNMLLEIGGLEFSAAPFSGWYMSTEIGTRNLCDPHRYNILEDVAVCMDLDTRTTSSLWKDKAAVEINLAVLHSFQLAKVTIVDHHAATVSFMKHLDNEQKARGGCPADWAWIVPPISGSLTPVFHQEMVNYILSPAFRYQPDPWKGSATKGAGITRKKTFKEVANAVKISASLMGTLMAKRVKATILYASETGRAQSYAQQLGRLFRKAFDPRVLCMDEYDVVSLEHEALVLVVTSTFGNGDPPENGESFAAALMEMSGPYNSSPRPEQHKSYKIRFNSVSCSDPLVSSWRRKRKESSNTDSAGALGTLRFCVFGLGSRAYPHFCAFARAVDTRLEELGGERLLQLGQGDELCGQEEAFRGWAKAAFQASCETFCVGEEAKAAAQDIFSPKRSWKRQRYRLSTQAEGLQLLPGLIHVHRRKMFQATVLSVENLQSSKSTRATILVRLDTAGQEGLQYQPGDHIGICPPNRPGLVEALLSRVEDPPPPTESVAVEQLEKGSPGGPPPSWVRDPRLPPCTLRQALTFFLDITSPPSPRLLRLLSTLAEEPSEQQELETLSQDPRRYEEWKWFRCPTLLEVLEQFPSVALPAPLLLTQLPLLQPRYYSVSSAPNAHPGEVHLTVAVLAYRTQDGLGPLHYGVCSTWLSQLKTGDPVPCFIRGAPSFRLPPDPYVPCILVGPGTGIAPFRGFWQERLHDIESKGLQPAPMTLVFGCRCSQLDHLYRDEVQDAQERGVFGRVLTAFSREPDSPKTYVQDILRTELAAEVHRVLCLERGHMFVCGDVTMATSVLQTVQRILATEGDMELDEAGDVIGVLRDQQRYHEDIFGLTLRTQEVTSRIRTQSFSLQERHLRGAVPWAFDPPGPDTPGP

[4] = target: Nitric oxide synthase 1 (Rattus norvegicus) (UniProt P29476); experiment: Compound was tested for the percent inhibition of nitric oxide synthase (n) using [14C]L-citrulline as radioligand.; conditions: concentration not given here
Nitric oxide synthase 1 = Nitric oxide synthase 1 (Rattus norvegicus, UniProt P29476); experiment: Compound was tested for the competitive inhibition of nitric oxide synthase (n) using [14C]L-citrulline as radioligand.; value ranges from 0.06-2 uM
Nitric oxide synthase 1, sequence (P29476 whole entry): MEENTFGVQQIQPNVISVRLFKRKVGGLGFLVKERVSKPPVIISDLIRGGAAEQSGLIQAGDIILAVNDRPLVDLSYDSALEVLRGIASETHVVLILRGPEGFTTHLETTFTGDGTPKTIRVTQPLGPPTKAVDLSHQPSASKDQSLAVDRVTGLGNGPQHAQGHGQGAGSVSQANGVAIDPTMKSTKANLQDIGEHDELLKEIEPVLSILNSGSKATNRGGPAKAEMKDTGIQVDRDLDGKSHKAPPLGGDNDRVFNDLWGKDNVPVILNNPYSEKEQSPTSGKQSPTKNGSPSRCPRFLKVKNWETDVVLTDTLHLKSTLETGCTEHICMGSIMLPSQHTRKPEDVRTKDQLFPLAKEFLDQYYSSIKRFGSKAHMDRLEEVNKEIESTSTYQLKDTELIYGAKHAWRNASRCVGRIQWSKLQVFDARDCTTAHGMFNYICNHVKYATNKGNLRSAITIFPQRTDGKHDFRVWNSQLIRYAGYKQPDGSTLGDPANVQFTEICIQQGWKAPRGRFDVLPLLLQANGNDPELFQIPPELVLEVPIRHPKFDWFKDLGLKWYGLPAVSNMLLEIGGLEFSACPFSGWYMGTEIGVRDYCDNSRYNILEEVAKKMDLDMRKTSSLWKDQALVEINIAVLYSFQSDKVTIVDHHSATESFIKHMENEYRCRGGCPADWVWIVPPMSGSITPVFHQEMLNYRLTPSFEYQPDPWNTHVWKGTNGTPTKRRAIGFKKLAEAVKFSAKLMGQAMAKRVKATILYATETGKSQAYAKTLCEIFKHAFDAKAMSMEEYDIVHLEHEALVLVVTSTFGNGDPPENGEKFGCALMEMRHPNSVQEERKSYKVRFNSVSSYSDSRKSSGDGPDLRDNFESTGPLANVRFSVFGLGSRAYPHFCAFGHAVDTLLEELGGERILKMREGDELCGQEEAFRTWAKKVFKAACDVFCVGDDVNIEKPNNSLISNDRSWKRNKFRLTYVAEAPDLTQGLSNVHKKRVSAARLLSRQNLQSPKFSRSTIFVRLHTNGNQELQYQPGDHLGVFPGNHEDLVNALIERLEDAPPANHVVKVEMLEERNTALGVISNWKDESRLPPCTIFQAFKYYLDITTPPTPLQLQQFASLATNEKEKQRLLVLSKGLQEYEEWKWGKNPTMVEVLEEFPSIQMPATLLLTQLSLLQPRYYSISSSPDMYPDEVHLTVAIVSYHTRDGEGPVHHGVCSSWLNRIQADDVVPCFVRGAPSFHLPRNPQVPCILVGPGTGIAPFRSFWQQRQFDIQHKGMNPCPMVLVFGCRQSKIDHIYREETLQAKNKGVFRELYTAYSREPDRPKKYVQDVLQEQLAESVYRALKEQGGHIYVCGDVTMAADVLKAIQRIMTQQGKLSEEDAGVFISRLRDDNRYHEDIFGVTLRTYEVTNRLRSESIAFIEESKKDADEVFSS

Nitric oxide synthase 1 (Rattus norvegicus), sequence (P29476 whole entry): as above

Row | Compound | inhibition [1] | pKi [2] | inhibition [3] | inhibition [4] | pKi (Nitric oxide synthase 1)
1 | N/C(S)=N/CCC[C@H](N)C(=O)O | > 99% | 5.44 | > 99% | > 99% | 7.22
2 | CS/C(S)=N/CCC[C@H](N)C(=O)O | 54% |  | 25% | 27% | 
3 | CSC(=NCCC[C@H](N)C(=O)O)SC | 56% |  | 46% | 39% | 
4 | CCOP(=S)(NCCC[C@H](N)C(=O)O)OCC | < 10% |  |  |  | 
